The text below walks through data of patent US20210386069A1 (priority 2018, published 2021).

The term logP denotes a log measure of how a compound divides between an organic and an aqueous phase. A lower logP goes with lower lipophilicity. One may read the chromatographic logP as a lipophilicity value derived from retention on a column. High values mean higher lipophilicity, low ones lower lipophilicity.

Each structure is given as a SMILES string.

A short description of one data set: log P by HPLC on a reversed-phase column (C 18), EEC Directive 79/831 Annex V.A8. In kind it is physicochemical. To be noted: HPLC reversed-phase C 18, 40° C., 0.1% aqueous formic acid and acetonitrile, linear gradient 10% to 95% acetonitrile.
On to `Cc1nc2c(F)c(F)ccc2cc1Nc1cccc(F)c1-c1ccnc(F)c1Cl` [I.129], for which the logP is on record as 3.98.
The same measure, in the same setting: next, `Cc1nc2c(F)c(F)ccc2cc1Nc1cccc(F)c1-c1ccc(OC(C)C)nc1` [I.130]: 4.47.
The compound `COc1ccc(-c2c(F)cccc2Nc2cc3ccc(F)c(F)c3nc2C)c(OC)n1` [I.131] yielded a logP of 4.43.
The compound `COc1nccc(-c2c(F)cccc2Nc2cc3ccc(F)c(F)c3nc2C)c1Cl` [I.132] yielded a logP of 4.09.
`Cc1nc2c(F)c(F)ccc2cc1Nc1cccc(F)c1-c1cncc(C(F)(F)F)c1` [I.133]: the logP is listed as 3.75.
Same read-out and setting: in the case of `Cc1nc2c(F)c(F)ccc2cc1Nc1cccc(F)c1-c1ccc(C(F)(F)F)nc1` [I.134] it was 3.94.
`COc1cc(-c2ccccc2Nc2cc3ccc(F)c(F)c3nc2C)c(Br)cn1` [I.135]: the logP was found to be 4.36.
For `Cc1nc2c(F)c(F)ccc2cc1Nc1cccc(F)c1-c1cc(F)cnc1F` [I.136], the logP amounted to 3.71.
Same read-out and setting: next, `Cc1nc2c(F)c(F)ccc2cc1Cc1cccnc1-c1ccnc(F)c1` [I.137]: 2.52; `Fc1cc(-c2cscc2Cc2cnc3c(F)cccc3c2)ccn1` [I.139]: 3.11.

Still in this data set, the particulars now being: reversed-phase HPLC column (C 18); preparation examples; log P as defined in table 1 (HPLC, 0.1% aqueous formic acid/acetonitrile).
Turning to `Cc1nc2c(F)c(F)ccc2cc1Cc1cscc1-c1ccnc(F)c1` [I.138, 7,8-difluoro-3-{[4-(2-fluoropyridin-4-yl)-3-thienyl]methyl}-2-methylquinoline], the chromatographic logP amounted to 3.64.
`Cc1nc2c(F)c(F)ccc2cc1Nc1cccc(F)c1Br` [N-(2-bromo-3-fluorophenyl)-7,8-difluoro-2-methylquinolin-3-amine]: the chromatographic logP was found to be 3.28.
